The test system of series [1] is integrated proviral HIV-1 DNA. Put plainly: Integrated proviral HIV-1 DNA by Alu-PCR in LC5-RIC cells. It is filed as cell-based. The following applies: HIV-1LAI, 48 h, concentrations >2x IC90, normalized to DMSO. As to the method: Quantitative analysis of integrated copies of HIV proviral DNA by Alu-PCR was performed essentially as described in[46]. Briefly, LC5-RIC cells seeded at a density of 100,000 cells per well in 12-well plates and incubated for 24 h were exposed to test compounds and HIV-1LAI virus inoculum at an MOI of 0.5 and incubated for further 48 h at 37 °C, 5% CO2. Subsequently, cells were harvested and genomic DNA (gDNA) was extracted using the QIAamp DNA Mini Kit (QIAGEN) according to the manufacturer’s protocol. The relative amount of integrated proviral HIV-1 DNA was determined by two-step Alu-PCR[46]. The relative amounts of integrated proviral HIV-1 DNA in treated versus untreated samples were calculated by the 2^(−ΔΔCt) method, with ΔCT values representing CT (HIV) - CT (β-globin) for each sample and ΔΔCT values representing values of treated samples normalized to untreated samples.

The subject of series [2] is HIV-1LAI. Kind of series: EASY-HIT assay: infectious virus production by LC5-RIC reporter cells exposed to HIV-1LAI. It is filed as cell-based. As for the experimental part:
To identify natural compounds with anti-HIV activity we screened a collection of 10,000 natural compounds: Anti-HIV activity was evaluated by determining compound effects on infectious virus production by LC5-RIC cells which are highly susceptible for HIV and contain a DsRed1-encoding reporter gene activated by HIV-infection[6]–[8]. For screening, cultures of LC5-RIC reporter cells were first exposed to virus in the presence of the compound (first-step of the assay). Subsequently, supernatants of these cultures were transferred to secondary plates with uninfected LC5-RIC cells. The fluorescent signal of the cultures in the secondary plates served as a measure of compound effects on infectious virus production.
Anti-HIV activities of compounds were profiled in LC5-RIC cells with the EASY-HIT assay as described in[6]. Briefly, LC5-RIC cells were first exposed to virus and compounds (first step of the assay). Compound effects on infectious virus production were determined by transferring aliquots of supernatants of compound-treated cultures to secondary plates and measurement of fluorescent signal intensities in secondary plates after 72 h (second step of the assay). Fluorescent signal intensities determined for compound-treated cultures were normalized to those determined for untreated virus-exposed cultures.

Another series relates to HIV-2. Details: method as in PMID 22293827, PMID 10465070. The following applies: virus intrinsically resistant; cited from earlier work.
In series [3] the test system is HIV-1LAI. Put plainly: Inhibition of HIV infection of human PBMCs (infectious virus production, read out on LC5-RIC cells). It is filed as cell-based. As to conditions: human PBMCs exposed to HIV-1LAI, mean ± SD. As to the method:
To evaluate anti-HIV efficacies of test compounds in primary human target cells, stimulated PBMCs were seeded in 96-well plates at a density of 500,000 cells per well, different #7concentrations of the compound (serial dilutions) and virus inoculum (MOI of 0.5) added to the PBMCs and cultures incubated for 48 h. Infectious virus production was quantified by transferring 35 µl of supernatant from the PBMC cultures to LC5-RIC cells, seeded in black 96-well plates one day earlier. LC5-RIC cultures were then incubated for 72 h and analysed for DsRed1 reporter expression and anti-HIV activity calculated as described for the EASY-HIT assay.

In series [4] the test system is HIV-1LAI. Kind of series: Photostability of anti-HIV activity (24 h illumination vs dark, EASY-HIT read-out). The following applies: 24 h illumination; compounds at IC90; LC5-RIC. It is filed as cell-based. As to the method:
Figure 1 Profiling of photostability of anti-HIV activity of Aureothin and synthetic Aureothin-derivatives. Anti-HIV activity of compound samples illuminated for 24 h were normalised to anti-HIV activity of samples of the same compound kept in the dark. Anti-HIV activity was measured by quantifying the amounts of infectious virus produced by HIV-1LAI exposed LC5-RIC cells treated with compounds at IC90 concentrations (Supplementary Table S1). […] Shown are means of at least three independent experiments with biological triplicates (n ≥ 3; m = 3) and the standard error of the mean (SEM) indicated.
LC5-RIC cells were plated as described for the EASY-HIT assay. […] Plates were incubated either in the dark or under constant illumination with a commercially available desk lamp (2X Philips Master PL-S-9W/840/2 P, 30 cm between light source and compounds) for 24 h at room temperature. For analysis of anti-HIV activity, compound samples were transferred to LC5-RIC cells and their anti-HIV activity determined by measuring compound effects on infectious virus production with the EASY-HIT assay. Relative photostability was calculated by normalizing the anti-HIV activity of the illuminated compounds to the antiviral activity of compounds kept in the dark.

A further series relates to LC5-RIC cells. Put plainly: CellTiter-Glo 2.0 cell viability assay in LC5-RIC cells. The series is classed as cell-based. As for the experimental part: The following assays were used to profile cell safety of compound treatment in HIV-exposed cultures (LC5-RIC or PBMC): (1) CellTox^TM Green Cytotoxicity Assay, Promega, measures binding of a fluorescent dye to DNA of cells with impaired membrane integrity; (2) CellTiter-Glo® 2.0 Assay, Promega, which measures the amount of ATP in viable cells after lysis using an assay with luminescence read-out. Cells were plated into black 96-well plates followed by overnight incubation at 37 °C, 5% CO2. Compounds dissolved in DMSO were screened at multiple concentrations from 0.6 to 10,000 nM at a final DMSO concentration of 0.04% followed by additional 48 h incubation. Both assays were performed according to manufacturer’s recommendations and consecutively in the above mentioned order. Cells were washed once with PBS between the assays.
Background: Cellular ATP, detected with luciferase, serves as a proxy for viable cell number.

The mark [5] stands for this setting: Human immunodeficiency virus 1, read-out: IC50, half maximal inhibitory concentration.
Setting [6] is: Human immunodeficiency virus 1, LC5-RIC cells exposed to HIV-1LAI, infectious virus production, mean ± SD, read-out: IC50, half maximal inhibitory concentration.

In the case of `C[C@@H]1CCO[C@H]2Cn3cc(C(=O)NCc4ccc(F)cc4F)c(=O)c(O)c3C(=O)N12` [Dolutegravir], in series [1], the “reduction of levels of integrated proviral DNA” value is on record as over 90%. For the same compound, the IC50 in the series with HIV-1LAI [2] (setting [5]) is about 0.001 µM.
As to `O=C1Nc2ccc(Cl)cc2[C@@](C#CC2CC2)(C(F)(F)F)O1` [Efavirenz], the “activity against HIV-2” value in the series on HIV-2 is reported as “ineffective against HIV-2”. The “reduction of levels of integrated proviral DNA” value in series [1] was over 90%. The IC50 in the series with HIV-1LAI [2] (setting [6]) was about 0.001 µM.
For the compound `COc1oc([C@H]2C/C(=C/C(C)=C/C(C)=C/C(C)=C/c3ccc([N+](=O)[O-])cc3)CO2)c(C)c(=O)c1C` [Neoaureothin], the IC50 in the series on HIV-1LAI [2] (setting [6]) stood at 0.0022 ± 6e-05 µM.
Regarding `CC(C)(C)NC(=O)[C@@H]1C[C@@H]2CCCC[C@@H]2CN1C[C@@H](O)[C@H](Cc1ccccc1)NC(=O)[C@H](CC(N)=O)NC(=O)c1ccc2ccccc2n1` [Saquinavir], the IC50 in the series on HIV-1LAI [2] (setting [5]) is about 0.01 µM.
As for `COc1oc([C@H]2C/C(=C/C(C)=C/c3ccc([N+](=O)[O-])cc3)CO2)c(C)c(=O)c1C` [compound 1, Aureothin], the IC50 came to 0.0117 ± 0.00137 µM in the series on HIV-1LAI [3] (read-out: IC50, half maximal HIV-inhibitory concentration) and 0.0053 ± 0.0004 µM in the series with HIV-1LAI [2] (LC5-RIC cells exposed to HIV-1LAI, infectious virus production, mean ± SD, read-out: IC50, half maximal inhibitory concentration). Further, the IC90 was determined as 0.045 ± 0.00333 µM in the series with HIV-1LAI [3] (read-out: IC90, 90% HIV-inhibitory concentration) and 0.0268 ± 0.00254 µM in the series with HIV-1LAI [2] (read-out: IC90, 90% inhibitory concentration, LC5-RIC cells exposed to HIV-1LAI, infectious virus production, mean ± SD). In the series with HIV-1LAI [4], the “loss of anti-HIV-activity compared to the non-illuminated controls” value was at least 50%. In the series with LC5-RIC cells, this compound gave a CC50 of over 10 µM.
Consider Enfuvirtide, for which the “activity against HIV-2” value in the series on HIV-2 is recorded as “ineffective against HIV-2”.

The CC50 is the concentration that lowers cell viability or growth by half.

These data come from paper PMC6987146, “Potent inhibition of HIV replication in primary human cells by novel synthetic polyketides inspired by Aureothin” (Scientific Reports, 2020).
